Test results: BindingDB's records for doi:10.1021/cc020096o (University of Anterwerp, 2003)

Experiments:
Dipeptidyl peptidase 2 = Dipeptidyl peptidase 2 (Homo sapiens, UniProt Q9UHL4); experiment: DPP IV Assay; conditions: pH 5.5
Dipeptidyl peptidase 4 = Dipeptidyl peptidase 4 (Homo sapiens, UniProt P27487); experiment: DPP IV Assay; conditions: pH 8.3
Experimental: Inhibitory concentration of the compound against Dipeptidyl peptidase IV (DPP IV) in Homo sapiens (human)is measured

Chain of Dipeptidyl peptidase 4 (P27487 whole entry): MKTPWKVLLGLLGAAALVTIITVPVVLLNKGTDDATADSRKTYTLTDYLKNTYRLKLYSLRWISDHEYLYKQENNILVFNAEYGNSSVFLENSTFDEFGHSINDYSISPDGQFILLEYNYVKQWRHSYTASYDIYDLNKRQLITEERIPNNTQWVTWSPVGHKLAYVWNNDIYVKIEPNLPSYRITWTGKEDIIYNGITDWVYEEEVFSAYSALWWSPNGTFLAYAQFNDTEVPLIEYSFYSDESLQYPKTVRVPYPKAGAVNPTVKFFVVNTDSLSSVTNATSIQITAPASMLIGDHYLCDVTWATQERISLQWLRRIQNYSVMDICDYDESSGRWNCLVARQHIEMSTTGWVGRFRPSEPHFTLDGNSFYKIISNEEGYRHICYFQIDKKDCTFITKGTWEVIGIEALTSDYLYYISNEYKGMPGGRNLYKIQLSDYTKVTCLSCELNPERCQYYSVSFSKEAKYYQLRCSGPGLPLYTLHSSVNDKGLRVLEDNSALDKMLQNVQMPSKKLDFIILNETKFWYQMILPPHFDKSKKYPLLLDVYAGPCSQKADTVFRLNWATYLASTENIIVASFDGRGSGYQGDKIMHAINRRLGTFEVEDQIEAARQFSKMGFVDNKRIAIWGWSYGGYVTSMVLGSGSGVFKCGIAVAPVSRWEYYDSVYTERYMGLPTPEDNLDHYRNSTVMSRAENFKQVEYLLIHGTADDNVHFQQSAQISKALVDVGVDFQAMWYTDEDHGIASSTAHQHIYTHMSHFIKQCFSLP

SMILES	IC50 (Dipeptidyl peptidase 2)	IC50 (Dipeptidyl peptidase 4)
CC(NC(=O)[C@@H](N)CO)P(=O)(Oc1ccccc1)Oc1ccccc1 (stereo partly drawn) [(2S)-2-amino-N-(1-diphenoxyphosphorylethyl)-3-hydroxy-propanamide]	> 1000 µM	> 500 µM
O=C(CNC1CCCC1)NC(C1CCCCC1)P(=O)(Oc1ccccc1)Oc1ccccc1 (centres undefined) [N-[cyclohexyl(diphenoxyphosphoryl)methyl]-2-(cyclopentylamino)acetamide]	8 µM	> 125 µM
CC(NC(=O)[C@@H](N)CC1CCCCC1)P(=O)(Oc1ccccc1)Oc1ccccc1 (stereo partly drawn) [(2S)-2-amino-3-cyclohexyl-N-(1-diphenoxyphosphorylethyl)propanamide]	47 µM	> 500 µM
CC(NC(=O)[C@@H](N)Cc1cnc[nH]1)P(=O)(Oc1ccccc1)Oc1ccccc1 (stereo partly drawn) [(2S)-2-amino-N-(1-diphenoxyphosphorylethyl)-3-(1H-imidazol-4-yl)propanamide]	> 500 µM	> 500 µM
CC(NC(=O)[C@H](C)N)P(=O)(Oc1ccccc1)Oc1ccccc1 (stereo partly drawn) [(2S)-2-amino-N-(1-diphenoxyphosphorylethyl)propanamide]	< 1000 µM	–
N[C@@H](CC(=O)O)C(=O)N1CCCC1P(=O)(Oc1ccccc1)Oc1ccccc1 (some centres undefined)	–	> 1000 µM
NCCCC[C@H](N)C(=O)N1CCCC1P(=O)(Oc1ccccc1)Oc1ccccc1 (some centres undefined)	> 1000 µM	117 µM
CC(C)C[C@H](N)C(=O)NC(C)P(=O)(Oc1ccccc1)Oc1ccccc1 (stereo partly drawn) [(2S)-2-amino-N-(1-diphenoxyphosphorylethyl)-4-methyl-pentanamide]	> 500 µM	> 1000 µM
CCCC(NC(=O)[C@@H](N)CC1CCCCC1)P(=O)(Oc1ccccc1)Oc1ccccc1 (stereo partly drawn) [(2S)-2-amino-3-cyclohexyl-N-(1-diphenoxyphosphorylbutyl)propanamide]	500 µM	> 250 µM
CCC(C)[C@H](N)C(=O)NC(CC(C)C)P(=O)(Oc1ccccc1)Oc1ccccc1 (stereo partly drawn) [(2S)-2-amino-N-(1-diphenoxyphosphoryl-3-methyl-butyl)-3-methyl-pentanamide]	286 µM	> 1000 µM
CCC(C)[C@H](N)C(=O)NC(C(C)C)P(=O)(Oc1ccccc1)Oc1ccccc1 (stereo partly drawn) [(2S)-2-amino-N-(1-diphenoxyphosphoryl-2-methyl-propyl)-3-methyl-pentanamide]	1000 µM	> 1000 µM
CCC(C)C(NC(=O)[C@@H](N)C(C)CC)P(=O)(Oc1ccccc1)Oc1ccccc1 (stereo partly drawn) [(2S)-2-amino-N-(1-diphenoxyphosphoryl-2-methyl-butyl)-3-methyl-pentanamide]	414 µM	> 1000 µM
CC(NC(=O)[C@@H](N)Cc1ccc(O)cc1)P(=O)(Oc1ccccc1)Oc1ccccc1 (stereo partly drawn) [(2S)-2-amino-N-(1-diphenoxyphosphorylethyl)-3-(4-hydroxyphenyl)propanamide]	> 500 µM	> 500 µM
CC(NC(=O)CN)P(=O)(Oc1ccccc1)Oc1ccccc1 (centres undefined) [2-amino-N-(1-diphenoxyphosphorylethyl)acetamide]	> 1000 µM	> 500 µM
O=C(CNC1CCCC1)NC(c1ccccc1)P(=O)(Oc1ccccc1)Oc1ccccc1 (centres undefined)	3.8 µM	> 125 µM
N[C@@H](Cc1ccccc1)C(=O)N1CCCC1P(=O)(Oc1ccccc1)Oc1ccccc1 (some centres undefined)	> 1000 µM	142 µM
C[C@H](N)C(=O)N1CCCC1P(=O)(Oc1ccccc1)Oc1ccccc1 (some centres undefined)	> 1000 µM	> 1000 µM
CC(C)[C@H](N)C(=O)NC(C)P(=O)(Oc1ccccc1)Oc1ccccc1 (stereo partly drawn) [(2S)-2-amino-N-(1-diphenoxyphosphorylethyl)-3-methyl-butanamide]	< 1000 µM	> 500 µM
N[C@@H](CC1CCCCC1)C(=O)NC(C1CCCCC1)P(=O)(Oc1ccccc1)Oc1ccccc1 (stereo partly drawn) [(2S)-2-amino-3-cyclohexyl-N-[cyclohexyl(diphenoxyphosphoryl)methyl]propanamide]	30 µM	> 250 µM

SMILES	IC50 (Dipeptidyl peptidase 2)	IC50 (Dipeptidyl peptidase 4)
CCCC(NC(=O)[C@@H](N)CCCCN)P(=O)(Oc1ccccc1)Oc1ccccc1 (stereo partly drawn) [(2S)-2,6-diamino-N-(1-diphenoxyphosphorylbutyl)hexanamide]	> 1000 µM	> 1000 µM
CCC(C)[C@H](N)C(=O)NC(CC)P(=O)(Oc1ccccc1)Oc1ccccc1 (stereo partly drawn) [(2S)-2-amino-N-(1-diphenoxyphosphorylpropyl)-3-methyl-pentanamide]	1000 µM	> 1000 µM
N[C@@H](CO)C(=O)N1CCCC1P(=O)(Oc1ccccc1)Oc1ccccc1 (stereo partly drawn) [(2S)-2-amino-1-(2-diphenoxyphosphorylpyrrolidin-1-yl)-3-hydroxy-propan-1-one]	> 1000 µM	503 µM
CCC(C)[C@H](N)C(=O)NC(C)P(=O)(Oc1ccccc1)Oc1ccccc1 (stereo partly drawn) [(2S)-2-amino-N-(1-diphenoxyphosphorylethyl)-3-methyl-pentanamide]	116 µM	> 500 µM
CC(NC(=O)[C@@H](N)CCCCN)P(=O)(Oc1ccccc1)Oc1ccccc1 (stereo partly drawn) [(2S)-2,6-diamino-N-(1-diphenoxyphosphorylethyl)hexanamide]	> 1000 µM	> 500 µM
N[C@@H](Cc1cnc[nH]1)C(=O)N1CCCC1P(=O)(Oc1ccccc1)Oc1ccccc1 (some centres undefined)	–	326 µM
CCC(C)[C@H](N)C(=O)NC(c1cccc(C#N)c1)P(=O)(Oc1ccccc1)Oc1ccccc1 (stereo partly drawn) [(2S)-2-amino-N-[(3-cyanophenyl)-diphenoxyphosphoryl-methyl]-3-methyl-pentanamide]	509 µM	> 125 µM
NC(=O)C[C@H](N)C(=O)N1CCCC1P(=O)(Oc1ccccc1)Oc1ccccc1 (some centres undefined)	> 125 µM	–
CCC(C)[C@H](N)C(=O)NC(C1CCCCC1)P(=O)(Oc1ccccc1)Oc1ccccc1 (stereo partly drawn) [(2S)-2-amino-N-[cyclohexyl(diphenoxyphosphoryl)methyl]-3-methyl-pentanamide]	148 µM	> 1000 µM
CCCC(NC(=O)[C@@H](N)C(C)CC)P(=O)(Oc1ccccc1)Oc1ccccc1 (stereo partly drawn) [(2S)-2-amino-N-(1-diphenoxyphosphorylbutyl)-3-methyl-pentanamide]	1000 µM	> 1000 µM
CCC(C)[C@H](N)C(=O)NC(c1ccccc1)P(=O)(Oc1ccccc1)Oc1ccccc1 (stereo partly drawn) [(2S)-2-amino-N-[diphenoxyphosphoryl(phenyl)methyl]-3-methyl-pentanamide]	18 µM	> 250 µM
CC(NC(=O)[C@@H](N)Cc1ccccc1)P(=O)(Oc1ccccc1)Oc1ccccc1 (stereo partly drawn) [(2S)-2-amino-N-(1-diphenoxyphosphorylethyl)-3-phenyl-propanamide]	< 1000 µM	> 500 µM
N[C@@H](Cc1cnc[nH]1)C(=O)NC(C1CCCCC1)P(=O)(Oc1ccccc1)Oc1ccccc1 (stereo partly drawn) [(2S)-2-amino-N-[cyclohexyl(diphenoxyphosphoryl)methyl]-3-(1H-imidazol-4-yl)propanamide]	241 µM	> 1000 µM
CCC(C)[C@H](N)C(=O)NC(c1ccc(C#N)cc1)P(=O)(Oc1ccccc1)Oc1ccccc1 (stereo partly drawn) [(2S)-2-amino-N-[(4-cyanophenyl)-diphenoxyphosphoryl-methyl]-3-methyl-pentanamide]	150 µM	> 250 µM
CC(NC(=O)[C@@H](N)CC(N)=O)P(=O)(Oc1ccccc1)Oc1ccccc1 (stereo partly drawn) [(2S)-2-amino-N-(1-diphenoxyphosphorylethyl)butanediamide]	286 µM	–
NCC[C@H](N)C(=O)NC(C1CCCCC1)P(=O)(Oc1ccccc1)Oc1ccccc1 (stereo partly drawn) [(2S)-2,4-diamino-N-[cyclohexyl(diphenoxyphosphoryl)methyl]butanamide]	21 µM	1000 µM
CCC(CC)C(NC(=O)[C@@H](N)C(C)CC)P(=O)(Oc1ccccc1)Oc1ccccc1 (stereo partly drawn) [(2S)-2-amino-N-(1-diphenoxyphosphoryl-2-ethyl-butyl)-3-methyl-pentanamide]	> 1000 µM	> 1000 µM
CCC(NC(=O)[C@@H](N)CC1CCCCC1)P(=O)(Oc1ccccc1)Oc1ccccc1 (stereo partly drawn) [(2S)-2-amino-3-cyclohexyl-N-(1-diphenoxyphosphorylpropyl)propanamide]	62 µM	> 1000 µM
